Test [1] deals with PD-1/PD-L1 binding (recombinant human PD-L1-Fc fusion protein and His-PD-1 protein) (Homo sapiens (Human), UniProt Q9NZQ7). As to the kind of experiment: In vitro inhibitory activity against PD-1/PD-L1 binding (HTRF). Particulars: read-out: IC50 for inhibiting PD-1/PD-L1 binding in vitro. From the text:
Homogeneous time resolved fluorescence method (HTRF): This method uses the recombinant human PD-L1 protein fused with hFc tag and the recombinant human PD-1 protein fused with His tag, which are interacting ligands and receptors. When the anti-hFc antibody containing chelated Eu tag and the anti-His antibody containing XL665 fluorescein tag are used to bind with the above two corresponding tags respectively and are excited by 320 nm laser, energy can be transferred from Eu element to XL665 fluorescein due to ligand receptor binding, and the XL665 fluorescein is excited to emit light with a wavelength of 665 nm. When an inhibitor for inhibiting interaction of PD-L1 and PD-1 is added, the binding of the ligand and the receptor is destroyed, causing a long distance between Eu and XL665. As a result, the energy cannot be transferred, and the XL665 fluorescein will not be excited.
Experimental Materials and Devices The recombinant human PD-1 protein with His tag (His-PD-1 protein, Cat #: 10377-H08H-50) and the recombinant human PD-L1-Fc fusion protein (PD-L1-Fc fusion protein, Cat #: 10084-H02H-100) were purchased from Sino Biological Inc., anti-hFc-Eu^3+ antibody and anti-His-XL665 antibody were purchased from Cisbio, and other related reagents such as a diluent buffer (diluent buffer 5 (Cat #: 62DL5DDC) and a detection buffer (PPI-European detection buffer, Cat #: 61DB9RDF) were purchased from Cisbio. Fluorescence detector Tecan (Spark 10M) was purchased from Tecan Company in Switzerland.
The experiment process was carried out according to the flow required in the operating manual of the test reagent. The process was as follows: • (1) Experiment preparation: A test compound was diluted to different concentration gradients with the dilution buffer (the highest final concentration in a 20 μL final reaction system was 10 μM). The His-PD-1 protein was diluted to 800 nM (the final concentration in the 20 final reaction system was 100 nM). The PD-L1-Fc fusion protein was diluted to 16 nM (the final concentration was 2 nM). […] All tests were conducted by use of multiple holes. • (4) The fluorescence detector Tecan (Spark 10M) was used to detect the fluorescence signal of each hole. The excitation wavelength was 320 nm, and the emission wavelengths for detection were 620 nm and 665 nm, respectively. The strength of PD-1/PD-L1 binding refers to a fluorescence signal ratio Em665/Em620. • (5) Calculation formula of binding inhibition rate of test compound: Inhibition rate (%)=[1−(fluorescence signal ratio of detected hole−fluorescence signal ratio of 100% inhibition negative control)]/(fluorescence signal ratio of 0% inhibition positive control−fluorescence signal ratio of 100% inhibition negative control)×100%. The 50% inhibition concentration (IC50) was calculated after the PD-1/PD-L1 binding inhibition rates of the test compound with different concentration gradients were calculated respectively.
On the technique in general: In TR-FRET formats the signal depends on donor and acceptor labels being close together.

The target in test [2] is CD80/PD-L1 binding (recombinant human His-CD80 protein and PD-L1-Fc fusion protein) (Homo sapiens (Human), UniProt Q9NZQ7). As to the kind of experiment: In vitro inhibitory activity against CD80/PD-L1 binding (HTRF). Particulars: read-out: IC50 for inhibiting CD80/PD-L1 binding in vitro. The text has this: In addition to PD-1, PD-L1 can also play an immune inhibition role by binding to CD80. Similarly, in vitro CD80/PD-L1 binding or binding inhibition test can also be conducted by homogeneous time-resolved fluorescence (HTRF). When the anti-hFc-Eu^3+ antibody and the anti-His-XL665 antibody are used to bind to the hFC tag fused to PD-L1 and the His tag fused to CD80 respectively, and after excitation with 320 nm laser, energy can be transferred from Eu element to XL665 fluorescein due to the binding of PD-L1 and CD80 to excite the XL665 fluorescein to emit light. When an inhibitor for inhibiting interaction of PD-L1 and CD80 is added, the binding of PD-L1 and CD80 is destroyed, causing a long distance between Eu and XL665. As a result, the energy cannot be transferred, and the XL665 fluorescein will not be excited.
The recombinant human CD80 protein with His tag (His-CD80 protein, Cat #: 10698-H08H-100) and the recombinant human PD-L1-Fc fusion protein (PD-L1-Fc fusion protein, Cat #: 10084-H02H-100) were purchased from Sino Biological Inc., anti-hFc-Eu^3+ antibody and anti-His-XL665 antibody were purchased from Cisbio, and other related reagents such as a diluent buffer (Diluent buffer 5 (Cat #: 62DL5DDC) and a detection buffer (PPI-European detection buffer, Cat #: 61DB9RDF) were purchased from Cisbio. Fluorescence detector Tecan (Spark 10M) was purchased from Tecan Company in Switzerland.
The experiment process was carried out according to the flow required in the operating manual of the test reagent (Invitrogen). The process was as follows: • (1) Experiment preparation: A test compound was diluted to different concentration gradients with the dilution buffer (the highest final concentration in a 20 μL final reaction system was 10 μM). The His-CD80 protein was diluted to 800 nM (the final concentration in the 20 final reaction system was 100 nM). The PD-L1-Fc fusion protein was diluted to 16 nM (the final concentration was 2 nM). The anti-His-XL665 antibody and the anti-hFc-Eu^3+antibody were diluted 20 times and 100 times respectively with the detection buffer according to reagent requirements. • (2) First, 5 μL of the test compound, 2.5 μL of the His-CD80 fusion protein and 2.5 μL of the […] fusion protein solution were well mixed and incubated at room temperature for 15 min; then, 5 μL of the anti-His-XL665 antibody and 5 μL of the anti-hFc-Eu^3+antibody were added to the system and further incubated for 3 h before test. • (3) During the test reaction, control groups were set, including a 0% inhibitory positive control without adding the test compound and a 100% inhibitory negative control without adding the CD80 protein. All tests were conducted by use of multiple holes. • (4) The fluorescence detector Tecan (Spark 10M) was used to detect the fluorescence signal of each hole. The excitation wavelength was 320 nm, and the emission wavelengths for detection were 620 nm and 665 nm, respectively. The strength of CD80/PD-L1 binding refers to a fluorescence signal ratio Em665/Em620. • (5) Calculation formula of binding inhibition rate of test compound: Inhibition rate (%)=[1−(fluorescence signal ratio of detected hole−fluorescence signal ratio of 100% inhibition negative control)]/(fluorescence signal ratio of 0% inhibition positive control — fluorescence signal ratio of 100% inhibition negative control)×100%. The 50% inhibition concentration (IC50) was calculated after the CD80/PD-L1 binding inhibition rates of the test compound with different concentration gradients were calculated respectively.

Structures are written as SMILES.

CD80/PD-L1 binding (recombinant human His-CD80 protein and PD-L1-Fc fusion protein), sequence (Q9NZQ7 19-239): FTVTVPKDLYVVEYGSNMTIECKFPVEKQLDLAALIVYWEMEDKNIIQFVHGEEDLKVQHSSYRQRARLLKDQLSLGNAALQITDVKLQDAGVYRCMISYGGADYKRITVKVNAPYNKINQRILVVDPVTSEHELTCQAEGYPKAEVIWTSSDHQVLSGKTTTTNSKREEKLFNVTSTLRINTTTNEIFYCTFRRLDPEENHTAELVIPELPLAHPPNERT
PD-1/PD-L1 binding (recombinant human PD-L1-Fc fusion protein and His-PD-1 protein), sequence (Q9NZQ7 19-239): as above

Take `COCC12CCC(CCN3CCc4c(nc(C(=O)Nc5cccc(-c6cccc(NC(=O)c7nc8c(n7C)CCN(CCC79CCC(C(=O)O)(CC7)C9)C8)c6Cl)c5F)n4C)C3)(CC1)C2` [Compound I-9, 4-(2-(2-((2-chloro-2′-fluoro-3′-(5-(2-(4-(methoxymethyl)bicyclo[2.2.1]heptan-1-yl)ethyl)-1-methyl-4,5,6,7-tetrahydro-1H-imidazo [4,5-c]pyridine-2-carboxamido)-[1,1′-biphenyl]-3-yl)carbamoyl)-1-methyl-1,4,6,7-tetrahydro-5H-imidazo[4,5-c]pyridin-5-yl)ethyl)bicyclo[2.2.1]heptane-1-carboxylic acid]: the results for the IC50 in test [1] and in test [2] were 0.88 nM and 0.41 nM, respectively.
In the case of `Cn1c(C(=O)Nc2cccc(-c3cccc(NC(=O)c4nc5c(n4C)CCN(CCC46CCC(C(=O)O)(CC4)C6)C5)c3Cl)c2F)nc2c1CCN(CCC13CCC(COC(F)F)(CC1)C3)C2` [Compound I-10, 4-(2-(2-((2-chloro-3′-(5-(2-(4-((difluoromethoxy)methyl)bicyclo[2.2.1]heptan-1-yl)ethyl)-1-methyl-4,5,6,7-tetrahydro-1H-imidazo[4,5-c]pyridine-2-carboxamido)-2′-fluoro-[1,1′-biphenyl]-3-yl)carbamoyl)-1-methyl-1,4,6,7-tetrahydro-5H-imidazo[4,5-c]pyridin-5-yl)ethyl)bicyclo[2.2.1]heptane-1-carboxylic acid], the IC50 in test [1] stood at 1.13 nM; in test [2] it was 0.62 nM.
Take `COCC12CCC(CCN3CCc4c(nc(C(=O)Nc5cccc(-c6cccc(NC(=O)c7nc8c(n7C)CCN(CCC79CCC(C(=O)O)(CC7)C9)C8)c6Cl)c5C#N)n4C)C3)(CC1)C2` [Compound I-11, 4-(2-(2-((2-chloro-2′-cyano-3′-(5-(2-(4-(methoxymethyl)bicyclo[2.2.1]heptan-1-yl)ethyl)-1-methyl-4,5,6,7-tetrahydro-1H-imidazo[4,5-c]pyridine-2-carboxamido)-[1,1′-biphenyl]-3-yl)carbamoyl)-1-methyl-1,4,6,7-tetrahydro-5H-imidazo[4,5-c]pyridin-5-yl)ethyl)bicyclo[2.2.1]heptane-1-carboxylic acid]: the IC50 was found to be 1.94 nM in test [1] and 1.43 nM in test [2].
The matching figures for `COCC12CCC(CCN3CCc4c(nc(C(=O)Nc5cccc(-c6cccc(NC(=O)c7nc8c(n7C)CCN(CC79CCC(C(=O)O)(CC7)C9)C8)c6Cl)c5C)n4C)C3)(CC1)C2` [Compound I-12, 4-((2-((2-chloro-3′-(5-(2-(4-(methoxymethyl)bicyclo[2.2.1]heptan-1-yl)ethyl)-1-methyl-4,5,6,7-tetrahydro-1H-imidazo[4,5-c]pyridine-2-carboxamido)-2′-methyl-[1,1′-biphenyl]-3-yl)carbamoyl)-1-methyl-1,4,6,7-tetrahydro-5H-imidazo[4,5-c]pyridin-5-yl)methyl)bicyclo[2.2.1]heptane-1-carboxylic acid]: 2.46 nM and 1.64 nM.
`Cn1c(C(=O)Nc2cccc(-c3cccc(NC(=O)c4nc5c(n4C)CCN(CC46CCC(C(=O)O)(CC4)C6)C5)c3Cl)c2Cl)nc2c1CCN(CCO)C2` [Example 180]: the IC50 in test [1] was 4.62 nM; in test [2], 5.53 nM.

For the origin of these results see patent US20230365590A1, “BIPHENYL COMPOUND AS IMMUNOMODULATOR, PREPARATION METHOD THEREFOR AND APPLICATION THEREOF” (SHENZHEN CHIPSCREEN BIOSCIENCES CO., LTD., priority 2020, published 2023).
